According to publication PMC7069095, “A cell-permeable peptide-based PROTAC against the oncoprotein CREPT proficiently inhibits pancreatic cancer” (Theranostics, 2020):

Tests used:
[1] = target: T1, endogenous CREPT protein in Panc-1 cells (Homo sapiens, UniProt Q9NQG5); test: Immunofluorescence staining of CREPT in cells treated with FITC-PRTC; type: cell-based; settings: immunofluorescence with anti-CREPT antibody
T1 construct: endogenous protein level of CREPT in Panc-1, AsPc-1 and MIA-PaCa-2 cells; endogenous in cells; host or cells: Panc-1, AsPc-1, MIA PaCa-2
T1 sequence (Q9NQG5 1-326): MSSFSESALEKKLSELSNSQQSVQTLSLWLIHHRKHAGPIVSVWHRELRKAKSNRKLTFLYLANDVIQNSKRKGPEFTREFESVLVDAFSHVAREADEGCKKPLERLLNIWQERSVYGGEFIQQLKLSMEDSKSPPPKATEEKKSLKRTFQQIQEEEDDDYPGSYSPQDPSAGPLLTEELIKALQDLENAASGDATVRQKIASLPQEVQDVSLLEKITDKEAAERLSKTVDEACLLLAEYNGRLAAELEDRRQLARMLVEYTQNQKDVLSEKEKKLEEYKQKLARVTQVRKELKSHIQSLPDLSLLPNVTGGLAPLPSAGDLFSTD
Protocol: After adherence, cells were treated with 10 μM PRTC for 24 h. The cells were then gently washed three times with warm PBS, fixed with 4% paraform and incubated with 0.25% Triton X-100 in PBST. Next, the cells were blocked in 5% BSA for 1 h at room temperature and incubated with an antibody against CREPT at 4 °C overnight. Cells were washed 3 times with PBST (0.1% Tween-20) and incubated with TRITC-labeled goat anti-mouse IgG antibody (Jackson ImmunoReseach) at a dilution rate of 1:100 at room temperature for 1 h. Coverslips were imaged by a confocal laser scanning microscope (OLYMPUS).
(§1) To address whether PRTC could induce CREPT degradation, we examined the endogenous protein level of CREPT in Panc-1, AsPc-1 and MIA-PaCa-2 cells in the presence of different dosages of PRTC. […] Consistently, treatment with PRTC led to decreases in CREPT protein at different times (Figure 5B, S3A). […] To further visualize the degradation process, we stained the endogenous CREPT protein with an antibody against CREPT in the cells treated with FITC-labeled PRTC.

Panc-1 cells = test: Confocal fluorescence imaging of FITC labeled peptides in cells; type: cell-based; settings: confocal microscope, Panc-1 cells
Protocol: To examine whether PRTC could permeate into pancreatic cancer cells, we synthesized fluorescein isothiocyanate (FITC) labeled PRTC, PRTC-m, PRTC-v, PRTC-r (PRTC without RRRRK) as well as TAT (a widely used cell penetrating peptide, as a positive control).
Figure 3 Identification of the permeability of PRTC in Panc-1 cells. (A) Entry of FITC- labeled peptides into Panc-1 cells tested by flow cytometry. FITC-TAT is the positive control. Measurements were performed in triplicate. (B) Quantification of cellular uptake of Panc-1 cells treated with different concentrations of FITC-PRTC. (C) Confocal microscope images of Panc-1 cells treated with 10 μM FITC labeled peptides. Scale bars, 10 μm. (D) Confocal microscope images of Panc-1 cells treated with different dosages of FITC-PRTC. Scale bars, 10 μm.

[2] = Circular dichroism (CD) spectroscopy; type: physicochemical; settings: 0.1 mg/mL in deionized water, room temperature
Protocol: All peptides were dissolved in the deionized water at a final concentration of 0.1 mg/mL. The CD spectra were measured by using a 1 nm bandwidth with a 1 nm step resolution from 190 to 260 nm at room temperature (Jasco spectropolarimeter, Japan). Final spectra were obtained from the average of three parallel scans after subtracting a spectrum of deionized water recorded under the same conditions. Each sample was scanned thrice and the averaged spectrum was smoothed. The helicity were calculated by CDNN 2.1 [59], [60].

[3] = target: T2, ubiquitinated CREPT in Panc-1 cells (Homo sapiens, UniProt Q9NQG5); test: Endogenous IP of CREPT with ubiquitin (Co-IP); type: cell-based; settings: 10 μM peptide for 24 h, IP: CREPT, IB: anti-ubiquitin
T2 construct: endogenous protein level of CREPT in Panc-1, AsPc-1 and MIA-PaCa-2 cells; endogenous in cells; host or cells: Panc-1, AsPc-1, MIA PaCa-2
T2 sequence (Q9NQG5 1-326): T1 sequence (Q9NQG5 1-326)
Protocol: (§2) For exogenous immunoprecipitation assays, HEK293T cells were plated in 60 mm dishes and then transfected with the indicated plasmids. After 24 h, cells were harvested using RIPA buffer (50 mM Tris-HCl pH 8.0, 2 mM EDTA pH 8.0, 150 mM NaCl, 1% NP-40, 0.5% sodium deoxycholate, 0.1% SDS) with mixed protease inhibitors. Cell lysates were incubated with 2 μg of the indicated antibodies and 30 μL of protein A/G-Sepharose beads at 4 °C overnight. Beads were eluted five times with lysis buffer (50 mM Tris-HCl pH 7.6, 1 mM EDTA pH 8.0, 165 mM NaCl, 0.5% NP-40), and thereafter, a western blot assay was performed to analyze the association by using the indicated antibodies. Western blot was performed as previously reported. Anti-β-actin and anti-Flag antibodies were purchased from Sigma. Anti-Myc antibody was purchased from Santa Cruz Biotechnology. Antibody against CREPT was produced in the laboratory.
In addition, a Co-IP experiment was performed in Panc-1 cells treated with 10 μM PRTC, PRTC-m or PRTC-v for 24 h. […] In the absence of MG132, the level of ubiquitinated CREPT was further increased by PRTC (Figure 6C, compare lane 1 and lane 2).
Figure 6 The degradation of CREPT by PRTC is dependent on its VHL ligand. (A) Immunoblot of CREPT following 24 h incubation with different dosages of PRTC or PRTC-v in Panc-1 cells. (B) Immunoblot of CREPT exposed to 10 μM PRTC or PRTC-v for different time points in Panc-1 cells. (C) Endogenous IP experiment of CREPT with ubiquitin treated with 10 μM PTRC, PTRC-m or PTRC-v in Panc-1 cells. IP: CREPT, IB: Anti-ubiquitin.

AsPc-1 cells = test: Cell proliferation assay (CCK-8); type: cell-based; settings: 10 μM
Protocol: (§3) Cells were seeded into 96-well plates (1000 cells per well) and cultured for the indicated times. Cell viability was evaluated using a CCK-8 kit (Solarbio, Beijing, China). The value of OD450 was calculated by spectrophotometer and presented as the mean ± standard deviation (SD) from three individual experiments. […]
CellproliferationassayofAsPc-1cellstreatedwith deionizedwater(Ctrl), 10μMPRTC,10μM […]
(§4) (1 picture or pasted object on this page, not shown here)

[4] = target: T1, endogenous CREPT protein in Panc-1 cells; test: Western blot of endogenous CREPT (degradation); type: cell-based; settings: different dosages (24 h) or time points (10 μM)
Protocol: as §2, §1
Figure 5 PRTC induces the ubiquitination and proteasome- dependent degradation of the endogenous CREPT protein. (A) Immunoblot of CREPT following 24 h incubation with different dosages of PRTC or PRTC-m in Panc-1 cells. (B) Immunoblot of CREPT exposed to 10 μM PRTC or PRTC-m for different times in Panc-1 cells. (C) Western blot analysis of CREPT following 24 h incubation with 10 μM PTRC in Panc-1 cells. MG132 is an inhibitor of proteasome activity. (D) Immunofluorescence visualization of Panc-1 cells after treatment with PRTC for 24 h. Cells were stained with anti-CREPT antibody. Scale bars, 20 μm.

MIA PaCa-2 cells = test: Cell proliferation assay (CCK-8); type: cell-based; settings: 10 μM
Protocol: as §3
PaCa-2cells treatedwith deionizedH 2O(Ctrl),10μMPRTC, PRTC-mandPRTC-v. […]
as §4

Substance	endogenous CREPT protein at 24 h [1]	localization of FITC labeled peptides in the cells (Panc-1 cells; 10 μM FITC labeled peptides)	subcellular localization (Panc-1 cells; increasing concentration and incubation time, repeated in AsPc-1 and MIA PaCa-2 cells)	secondary structure by CD spectrum [2]	Helicity ([2]; 190 to 260 nm, average of three scans, calculated by CDNN 2.1)	ubiquitinated CREPT proteins [3]	cell proliferation (AsPc-1 cells)	degradation of endogenous CREPT protein [4]	cell proliferation (MIA PaCa-2 cells)
FITC-AHX-IYP (OH) AL-AHX-KDVLSEKEKKLEEYKQKLARV-RRRRK [FITC-PRTC, fluorescein isothiocyanate (FITC) labeled PRTC]	almost completely depleted	strong localization	localized into the nucleus						
KDVLSEKEKKLEEYKQKLARV-RRRRK [PRTC-v, PRTC without the VHL ligand]				α-helix structure	42.2%	unable to mediate the accumulation	failed	failed to degrade	failed
